Counter-ions that a name gives are not always drawn.
Biological target: T1, human CXCR4 (hCXCR4) receptor (Homo sapiens, UniProt P61073)
T1 construct: expressed in transfected cells; host or cells: HEK-293 T cells, transient co-transfection with polyethylenimine
Assay: BRET assay of antagonist activity on the CXCR4-CXCL12 signaling pathway (Gαi2 recruitment) in HEK-293 T cells
Type: cell-based
Settings: HEK-293 T cells with hCXCR4, Gαi2 and BRET biosensors; 10 min with compound, then EC80 CXCL12
Experimental: Examples of the present invention were tested for their antagonist activity on human CXCR4 (hCXCR4) receptor transiently over-expressed in HEK-293 T cells. Compounds exert antagonist activity if they decrease the action of CXCL12 on the receptor.
The specific effector (luciferase tagged: BRET donor) recruited at the membrane will be in close proximity to a plasma membrane anchor (GFP tagged: BRET acceptor) to induce a BRET signal (Hamdan et a1, 2006, Chapter 5, Current Protocols in Neuroscience).
HEK-293 T cells are maintained in Dulbecco's Modified Eagle's Medium supplemented with 10% Foetal Calf Serum, 1% Penicillin/Streptomycin at 37° C./5% CO2. Cells are co-transfected using polyethylenimine (25 kDa linear) with several DNA plasmids encoding: hCXCR4; Gai2; an intracellular effector fused to luciferase (BRET donor); a plasma membrane effector fused to GFP (BRET acceptor). After transfection, cells are cultured for 48 h at 37° C./5% CO2. On the day of the assay, cells are detached using trypsin 0.05%, resuspended in assay buffer (1.8 mM CaCl2, 1 mM MgCl2, 2.7 mM KCl, 137 mM NaCl, 0.4 mM NaH2PO4, 5.5 mM D-Glucose, 11.9 mM NaHCO3, 25 mM Hepes) and seeded in 384 well plate at a density of 20,000 cells per well. Then, plates are equilibrated 3.5 h at 37° C. before adding compounds. Compounds and luciferase substrate are added to the cells using an automated device (Freedom Evo®, Tecan) and BRET readings are collected on EnVision (PerkinElmer) with specific filters (410 nm BW 80 nm, 515 nm BW 30 nm).
Cells are first incubated for 10 minutes with the compound alone. Then, cells are stimulated by an EC80 CXCL12 concentration for additional 10 minutes and luminescence is recorded. EC80 CXCL12 concentration is the concentration giving 80% of the maximal CXCL12 response. Antagonist activity is evaluated in comparison to basal signals evoked by EC80 CXCL12 alone.
For IC50 determination, a dose-response test is performed using 20 concentrations (ranging over 6 logs) of each compound. Dose-response curves are fitted using the sigmoidal dose-response (variable slope) analysis in GraphPad Prism software (GraphPad Software) and IC50 of antagonist activity is calculated. Dose-response experiments are performed in duplicate, in two independent experiments.
HEK-293 T cells were transfected to allow measuring the recruitment of Gai2 proteins involved in intracellular signaling by human CXCR4 receptor (hCXCR4) via the BRET technology. Cells were then incubated with various concentrations of examples of the invention before stimulation with an EC80 concentration of CXCL12.

T1 sequence (P61073 whole entry): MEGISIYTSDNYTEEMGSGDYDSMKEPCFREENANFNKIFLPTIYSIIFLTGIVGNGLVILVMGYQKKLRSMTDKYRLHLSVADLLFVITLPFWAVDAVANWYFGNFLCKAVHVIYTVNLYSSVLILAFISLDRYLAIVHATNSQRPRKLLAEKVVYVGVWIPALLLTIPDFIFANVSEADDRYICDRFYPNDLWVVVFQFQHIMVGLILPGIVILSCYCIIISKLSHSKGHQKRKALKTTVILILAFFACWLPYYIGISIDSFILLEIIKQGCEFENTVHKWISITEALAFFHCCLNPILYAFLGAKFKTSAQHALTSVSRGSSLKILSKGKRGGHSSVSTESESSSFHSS

Question: `Clc1ccc2c(c1)CN=C(SCCCCN1CCCC1)N2` [Example 60, 6-chloro-2-((4-(pyrrolidin-1-yl)butyl)thio)-1,4-dihydroquinazoline dihydrochloride] was tested. Which IC50 did it give?
Answer: Its IC50 is at least 15 µM.

— US20240018125A1, “CYCLIC ISOTHIOUREA DERIVATIVES AS CXCR4 MODULATORS” (ERMIUM THERAPEUTICS, priority 2020, published 2024)
